Results reported in patent publication EP1018560A1, “VECTORS FOR TREATING CANCER” (Dnavec Research Inc., priority 1997, dated 1999).
Where a name gives a salt, the structure may show the parent alone. Starred links: 1 amine or outer side, 2 acyl side, 3 side chain; linkers in the order of their positions; H or OH if unused. Positions of bridges follow the written chain, without caps; N, C: chain ends. Non-standard residues stand in square brackets, D forms with d. Residues, ends and D or L forms follow the SMILES beside them. Chains are numbered I, II in the order given. Actinocin(9to1) = Cc1c2oc3c(C)ccc(C(=O)[*:1])c3nc-2c(C(=O)[*:2])c(N)c1=O; NMeV = CN[C@H](C(=O)O)C(C)C; Sar = CNCC(=O)O

Columns and labels:
U2OS cells (p53+) = experiment: Potentiation of p53-dependent suppression of expression by antitumor agents (β-galactosidase activity); format: cell-based
Description: U2OS cells (p53+) that had been placed into six-well plates (6 x 10^5 cells per well) on the previous day were infected with AxYp53RECre at the indicated MOIs. Various compounds (actinomycin D, doxorubicin hydrochloride, etoposide, and nocodazole, all from Sigma, USA) were then added at the indicated concentrations. On the next day, the compounds were removed, and AxCAYLLZ was infected at the indicated MOIs. Six days later, crude extracts of infected cells were prepared and assayed for β-galactosidase activity similarly as described in 3-1). […]

[1] = system: p53-Deficient Saos2 cells; experiment: Cell death specific to p53-deficient cells (ganciclovir sensitivity, viable cell number); format: cell-based, human; details: combination of AxYp53RECre, AxCAYLTK, and ganciclovir; Saos2 versus U20S cells
Description: p53-Deficient Saos2 cells and p53-expressing U20S cells were inoculated then cultured in the presence of 50 ng/ml nocodazole (Sigma, USA) on the next day. Nocodazole was removed on the following day, and the cells were infected with AxYp53RECre at the indicated MOIs. On the day after that, the cells were further infected with AxCAYLTK at the indicated MOIs. Three days later, infected cells were placed into 96-well plates at a quantity of 2000 cells/well, and various concentrations of ganciclovir (Nippon Roche) were added thereto. Seven days later, the number of viable cells was counted using a Cell Titer 96 AQueous Non-Radioactive Cell Proliferation Assay (Promega, USA). […] In this figure, "% viable cell number" refers to the relative number of cells compared to the number of cells in the absence of ganciclovir taken as 100. Mean values of five samples are shown. Error bars show standard deviations.

## COC(=O)Nc1nc2ccc(C(=O)c3cccs3)cc2[nH]1 [nocodazole]
U2OS cells (p53+); AxCAYLLS MOI 10, pAxYp53RECre MOI 0, 50 ng/ml nocodazole (reference)
  Remaining β-galactosidase activity: 100%
U2OS cells (p53+); AxCAYLLS MOI 10, pAxYp53RECre MOI 10, 50 ng/ml nocodazole
  Remaining β-galactosidase activity: 31%

## COc1cc([C@@H]2c3cc4c(cc3[C@@H](O[C@@H]3O[C@@H]5CO[C@@H](C)O[C@H]5[C@H](O)[C@H]3O)[C@H]3COC(=O)[C@H]23)OCO4)cc(OC)c1O [etoposide]
U2OS cells (p53+); AxCAYLLS MOI 10, pAxYp53RECre MOI 0, 1000 ng/ml etoposide (reference)
  Remaining β-galactosidase activity: 100%
U2OS cells (p53+); AxCAYLLS MOI 10, pAxYp53RECre MOI 30, 1000 ng/ml etoposide
  Remaining β-galactosidase activity: 0.6%

## COc1cccc2c1C(=O)c1c(O)c3c(c(O)c1C2=O)C[C@@](O)(C(=O)CO)C[C@@H]3O[C@H]1C[C@H](N)[C@H](O)[C@H](C)O1 [doxorubicin, doxorubicin hydrochloride]
U2OS cells (p53+); AxCAYLLS MOI 10, pAxYp53RECre MOI 0, 100 ng/ml doxorubicin (reference)
  Remaining β-galactosidase activity: 100%
U2OS cells (p53+); AxCAYLLS MOI 10, pAxYp53RECre MOI 30, 100 ng/ml doxorubicin
  Remaining β-galactosidase activity: 0.5%

## Cc1c2oc3c(C)ccc(C(=O)N[C@@H]4C(=O)N[C@H](C(C)C)C(=O)N5CCC[C@H]5C(=O)N(C)CC(=O)N(C)[C@@H](C(C)C)C(=O)O[C@@H]4C)c3nc-2c(C(=O)N[C@@H]2C(=O)N[C@H](C(C)C)C(=O)N3CCC[C@H]3C(=O)N(C)CC(=O)N(C)[C@@H](C(C)C)C(=O)O[C@@H]2C)c(N)c1=O [actinomycin D] (I: T[dV]P[Sar][NMeV] / II: T[dV]P[Sar][NMeV]; ester I:1-I:C, II:1-II:C; linker I:N-II:N via Actinocin(9to1))
U2OS cells (p53+); AxCAYLLS MOI 10, pAxYp53RECre MOI 0, 10 ng/ml actinomycin D (reference)
  Remaining β-galactosidase activity: 100%
U2OS cells (p53+); AxCAYLLS MOI 10, pAxYp53RECre MOI 30, 10 ng/ml actinomycin D
  Remaining β-galactosidase activity: 2.4%

## Nc1nc(O)c2ncn(COC(CO)CO)c2n1 [ganciclovir]
[1]
  cell death: caused cell death specific to p53-deficient cells
